1 molecule from ChEMBL document CHEMBL4251708, “Synthesis and Biological Screening of Pyrano[3,2-c]quinoline Analogues as Anti-inflammatory and Anticancer Agents” (ACS Med Chem Lett, 2018) can be followed below.

The structures appear in SMILES notation.

What all share (format): functional
For one experiment, the system named is ACHN. Description: Antiproliferative activity against human ACHN cells at 500 nM after 48 hrs by propidium iodide staining based fluorometry relative to control.
A further experiment concerns PANC-1. Description: Antiproliferative activity against human PANC1 cells at 500 nM after 48 hrs by propidium iodide staining based fluorometry relative to control.
In a further experiment the test system is HCT-116. Kind of experiment: Antiproliferative activity against human HCT116 cells at 500 nM after 48 hrs by propidium iodide staining based fluorometry relative to control.
The next experiment deals with NCI-H460. Kind of experiment: Antiproliferative activity against human H460 cells at 500 nM after 48 hrs by propidium iodide staining based fluorometry relative to control.
For another experiment, the system named is Calu-1. Kind of experiment: Antiproliferative activity against human Calu1 cells at 500 nM after 48 hrs by propidium iodide staining based fluorometry relative to control.

Turning to `Nc1ccn([C@@H]2O[C@H](CO)[C@@H](O)C2(F)F)c(=O)n1` [GEMCITABINE], the Activity in the experiment with ACHN came out at 73%; in the experiment on PANC-1, 74%; with HCT-116 it was 73%; with NCI-H460, 71%; in the experiment with Calu-1, 79%.
